Measured values: patent publication US11530210B2, “Substituted heteroaromatic pyrazolo-pyridines and their use as GLUN2B receptor modulators” (JANSSEN PHARMACEUTICA NV, priority 2019, dated 2022)
Counter-ions that a name gives are not always drawn.

target: T1, human GluN1/GluN2B NMDA receptors (Homo sapiens, UniProt Q13224); experiment: Calcium flux (FLIPR) assay on cloned human NR1/GluN2B ion channels expressed in mammalian cells (standard and HTS variants); format: cell-based; settings: cells expressing human GluN1/GluN2B, glutamate and glycine co-agonists
T1 construct: expressed in transfected cells
Outline: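 Tet-On-induced stable cell line loaded with Calcium 5 dye; compounds applied 5 min (agonist check), then glutamate at ~EC40 plus 10 μM glycine for 5 min. Buffer pH 7.4 with 0.5 mM MgCl2 in dye loading (standard) or 1.5 mM (HTS). FLIPR fluorescence normalized to control wells; (+)MK-801 as antagonist control.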

T1 sequence (Q13224 27-1484, other chains not shown): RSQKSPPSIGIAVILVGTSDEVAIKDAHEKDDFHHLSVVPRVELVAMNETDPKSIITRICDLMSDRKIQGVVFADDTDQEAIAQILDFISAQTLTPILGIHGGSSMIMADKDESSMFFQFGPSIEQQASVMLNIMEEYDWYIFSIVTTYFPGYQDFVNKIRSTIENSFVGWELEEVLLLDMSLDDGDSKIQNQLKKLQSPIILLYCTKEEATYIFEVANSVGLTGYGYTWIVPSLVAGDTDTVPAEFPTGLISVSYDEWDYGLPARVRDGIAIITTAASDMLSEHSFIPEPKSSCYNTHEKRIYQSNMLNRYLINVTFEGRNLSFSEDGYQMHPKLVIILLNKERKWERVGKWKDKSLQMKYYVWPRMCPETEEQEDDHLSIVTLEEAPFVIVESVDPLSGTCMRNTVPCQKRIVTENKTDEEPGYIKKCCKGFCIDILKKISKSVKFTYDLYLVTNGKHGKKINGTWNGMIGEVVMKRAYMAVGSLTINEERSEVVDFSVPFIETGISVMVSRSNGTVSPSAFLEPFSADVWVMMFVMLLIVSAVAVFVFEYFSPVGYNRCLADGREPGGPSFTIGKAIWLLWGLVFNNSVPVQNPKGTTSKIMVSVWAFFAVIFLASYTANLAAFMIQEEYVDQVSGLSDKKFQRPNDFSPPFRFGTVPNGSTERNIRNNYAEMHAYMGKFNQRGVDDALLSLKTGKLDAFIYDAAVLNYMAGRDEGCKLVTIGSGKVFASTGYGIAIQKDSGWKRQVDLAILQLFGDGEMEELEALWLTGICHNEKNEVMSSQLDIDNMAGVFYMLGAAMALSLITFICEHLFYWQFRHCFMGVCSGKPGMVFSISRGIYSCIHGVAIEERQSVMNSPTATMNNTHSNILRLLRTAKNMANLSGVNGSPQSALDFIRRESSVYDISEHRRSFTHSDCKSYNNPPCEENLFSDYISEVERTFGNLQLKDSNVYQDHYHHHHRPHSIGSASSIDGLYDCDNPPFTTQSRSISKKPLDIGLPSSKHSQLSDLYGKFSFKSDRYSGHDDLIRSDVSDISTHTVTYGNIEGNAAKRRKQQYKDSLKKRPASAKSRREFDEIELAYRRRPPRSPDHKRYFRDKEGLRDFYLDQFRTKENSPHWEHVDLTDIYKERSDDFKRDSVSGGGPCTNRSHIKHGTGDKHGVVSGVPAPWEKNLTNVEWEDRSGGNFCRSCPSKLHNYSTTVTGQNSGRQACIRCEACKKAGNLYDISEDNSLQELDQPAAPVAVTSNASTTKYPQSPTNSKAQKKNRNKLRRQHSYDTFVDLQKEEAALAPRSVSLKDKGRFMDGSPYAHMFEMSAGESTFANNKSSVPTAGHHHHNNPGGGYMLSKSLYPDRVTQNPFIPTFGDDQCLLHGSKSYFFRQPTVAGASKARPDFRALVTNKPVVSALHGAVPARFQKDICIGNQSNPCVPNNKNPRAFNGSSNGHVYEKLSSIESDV

In order of rising IC50:
1. Cc1cncc(Cn2ncc3ncc(-c4ccc(F)c(C(F)F)c4)cc32)c1 [Example 200, 6-[3-(Difluoromethyl)-4-fluoro-phenyl]-1-[(5-methyl-3-pyridyl)methyl]pyrazolo[4,3-b]pyridine]  12 nM
2. Fc1ccc(Cn2ncc3ncc(-c4ccc(F)c(C(F)F)c4)cc32)cn1 [Example 201, 6-(3-(Difluoromethyl)-4-fluorophenyl)-1-((6-fluoropyridin-3-yl)methyl)-1H-pyrazolo[4,3-b]pyridine]  16 nM
3. Fc1ccc(-c2cnc3cnn(Cc4cncc(C(F)F)c4)c3c2)cc1C(F)F [Example 209, 6-[3-(Difluoromethyl)-4-fluoro-phenyl]-1-[[5-(difluoromethyl)-3-pyridyl]methyl]pyrazolo[4,3-b]pyridine]  20 nM
4. Cc1cc(-c2cnc3cnn(Cc4cncc(F)c4)c3c2)ccc1F [Example 183, 6-(4-Fluoro-3-methyl-phenyl)-1-[(5-fluoro-3-pyridyl)methyl]pyrazolo[4,3-b]pyridine]  21 nM
5. Cc1cc(-c2cnc3cnn(Cc4cccnc4)c3c2)ccc1F [Example 177, 6-(4-Fluoro-3-methyl-phenyl)-1-(3-pyridylmethyl)pyrazolo[4,3-b]pyridine]  23 nM
6. Fc1cncc(Cn2ncc3ncc(-c4ccc(F)c(Cl)c4)cc32)c1 [Example 195, 6-(3-Chloro-4-fluoro-phenyl)-1-[(5-fluoro-3-pyridyl)methyl]pyrazolo[4,3-b]pyridine]  25 nM
7. Cc1cc(-c2cnc3c(F)nn(Cc4cccnc4)c3c2)ccc1F [Example 178, 3-Fluoro-6-(4-fluoro-3-methyl-phenyl)-1-(3-pyridylmethyl)pyrazolo[4,3-b]pyridine]  26 nM
8. Fc1ccc(-c2cnc3cnn(Cc4cncc(Cl)c4)c3c2)cc1C(F)F [Example 208, 1-[(5-Chloro-3-pyridyl)methyl]-6-[3-(difluoromethyl)-4-fluoro-phenyl]pyrazolo[4,3-b]pyridine]  26 nM
9. COc1cncc(Cn2ncc3ncc(-c4ccc(F)c(C(F)F)c4)cc32)c1 [Example 207, 6-[3-(Difluoromethyl)-4-fluoro-phenyl]-1-[(5-methoxy-3-pyridyl)methyl]pyrazolo[4,3-b]pyridine]  28 nM
10. N#Cc1cncc(Cn2ncc3ncc(-c4ccc(F)c(C(F)F)c4)cc32)c1 [Example 203, 5-[[6-[3-(Difluoromethyl)-4-fluoro-phenyl]pyrazolo[4,3-b]pyridin-1-yl]methyl]pyridine-3-carbonitrile]  31 nM
11. Cc1nn(Cc2cccnc2)c2cc(-c3ccc(F)c(C(F)F)c3)cnc12 [Example 199, 6-[3-(Difluoromethyl)-4-fluoro-phenyl]-3-methyl-1-(3-pyridylmethyl)pyrazolo[4,3-b]pyridine]  34 nM
12. Fc1cncc(Cn2ncc3ncc(-c4cc(F)cc(F)c4)cc32)c1 [Example 185, 6-(3,5-Difluorophenyl)-1-[(5-fluoro-3-pyridyl)methyl]pyrazolo[4,3-b]pyridine]  45 nM
13. Fc1ccc(-c2cnc3cnn(Cc4cncc(C(F)(F)F)c4)c3c2)cc1C(F)F [Example 211, 6-[3-(Difluoromethyl)-4-fluoro-phenyl]-1-[[5-(trifluoromethyl)-3-pyridyl]methyl]pyrazolo[4,3-b]pyridine]  47 nM
14. Fc1cncc(Cn2ncc3ncc(-c4ccc(F)c(F)c4)cc32)c1 [Example 192, 6-(3,4-Difluorophenyl)-1-[(5-fluoro-3-pyridyl)methyl]pyrazolo[4,3-b]pyridine trifluoroacetate salt]  48 nM
15. Cc1cncc(Cn2ncc3ncc(-c4ccc(F)c(C)c4)cc32)c1 [Example 180, 6-(4-Fluoro-3-methyl-phenyl)-1-[(5-methyl-3-pyridyl)methyl]pyrazolo[4,3-b]pyridine trifluoroacetate salt]  62 nM
16. Cc1cc(-c2cnc3cnn(Cc4ccc(F)nc4)c3c2)ccc1F [Example 182, 6-(4-Fluoro-3-methyl-phenyl)-1-[(6-fluoro-3-pyridyl)methyl]pyrazolo[4,3-b]pyridine]  64 nM
17. N#Cc1cncc(Cn2ncc3ncc(-c4cccc(C(F)F)c4F)cc32)c1 [Example 212, 5-[[6-[3-(Difluoromethyl)-2-fluoro-phenyl]pyrazolo[4,3-b]pyridin-1-yl]methyl]pyridine-3-carbonitrile]  67 nM
18. Cc1ccncc1Cn1ncc2ncc(-c3cc(F)cc(F)c3)cc21 [Example 184, 6-(3,5-Difluorophenyl)-1-[(4-methyl-3-pyridyl)methyl]pyrazolo[4,3-b]pyridine trifluoroacetate salt]  68 nM
19. Fc1c(-c2cnc3cnn(Cc4cncc(Cl)c4)c3c2)cccc1C(F)F [Example 213, 1-[(5-Chloro-3-pyridyl)methyl]-6-[3-(difluoromethyl)-2-fluoro-phenyl]pyrazolo[4,3-b]pyridine]  68 nM
20. Cc1cncc(Cn2ncc3ncc(-c4ccc(F)c(F)c4)cc32)c1 [Example 189, 6-(3,4-Difluorophenyl)-1-[(5-methyl-3-pyridyl)methyl]pyrazolo[4,3-b]pyridine]  70 nM
21. CC(F)(F)c1cc(-c2cnc3cnn(Cc4cccnc4)c3c2)ccc1F [Example 216, 6-[3-(1,1-Difluoroethyl)-4-fluoro-phenyl]-1-(3-pyridylmethyl)pyrazolo[4,3-b]pyridine]  109 nM
22. Fc1ccc(-c2cnc3cnn(Cc4cncc(OC(F)F)c4)c3c2)cc1C(F)F [Example 210, 1-[[5-(Difluoromethoxy)-3-pyridyl]methyl]-6-[3-(difluoromethyl)-4-fluoro-phenyl]pyrazolo[4,3-b]pyridine]  110 nM
23. Cc1cc(-c2cnc3cnn(Cc4cnccc4C)c3c2)ccc1F [Example 181, 6-(4-Fluoro-3-methyl-phenyl)-1-[(4-methyl-3-pyridyl)methyl]pyrazolo[4,3-b]pyridine trifluoroacetate salt]  113 nM
24. Fc1ccc(-c2cnc3cnn(Cc4ccccn4)c3c2)cc1C(F)F [Example 197, 6-[3-(Difluoromethyl)-4-fluoro-phenyl]-1-(2-pyridylmethyl)pyrazolo[4,3-b]pyridine]  130 nM
25. COc1cncc(Cn2ncc3ncc(-c4ccc(F)c(Cl)c4)cc32)c1 [Example 196, 6-(3-Chloro-4-fluoro-phenyl)-1-[(5-methoxy-3-pyridyl)methyl]pyrazolo[4,3-b]pyridine]  152 nM
26. Cc1ccncc1Cn1ncc2ncc(-c3ccc(F)c(F)c3)cc21 [Example 190, 6-(3,4-Difluorophenyl)-1-[(4-methyl-3-pyridyl)methyl]pyrazolo[4,3-b]pyridine trifluoroacetate salt]  158 nM
27. Fc1ccc(Cn2ncc3ncc(-c4ccc(F)c(F)c4)cc32)cn1 [Example 191, 6-(3,4-Difluorophenyl)-1-[(6-fluoro-3-pyridyl)methyl]pyrazolo[4,3-b]pyridine]  176 nM
28. COc1cccc(Cn2ncc3ncc(-c4ccc(F)c(C(F)F)c4)cc32)n1 [Example 205, 6-[3-(Difluoromethyl)-4-fluoro-phenyl]-1-[(6-methoxy-2-pyridyl)methyl]pyrazolo[4,3-b]pyridine]  177 nM
29. COc1cncc(Cn2ncc3ncc(-c4ccc(Cl)c(Cl)c4)cc32)c1 [Example 215, 6-(3,4-Dichlorophenyl)-1-[(5-methoxy-3-pyridyl)methyl]pyrazolo[4,3-b]pyridine]  217 nM
30. Fc1ccc(-c2cnc3cnn(Cc4cccnc4)c3c2)cc1F [Example 187, 6-(3,4-Difluorophenyl)-1-(3-pyridylmethyl)pyrazolo[4,3-b]pyridine trifluoroacetate salt]  218 nM
31. COc1cncc(Cn2ncc3ncc(-c4ccc(F)c(F)c4)cc32)c1 [Example 193, 6-(3,4-Difluorophenyl)-1-[(5-methoxy-3-pyridyl)methyl]pyrazolo[4,3-b]pyridine]  277 nM
32. COc1ncccc1Cn1ncc2ncc(-c3ccc(F)c(C(F)F)c3)cc21 [Example 206, 6-[3-(Difluoromethyl)-4-fluoro-phenyl]-1-[(2-methoxy-3-pyridyl)methyl]pyrazolo[4,3-b]pyridine]  307 nM
33. Cc1cc(-c2cnc3cnn(Cc4cccnc4C)c3c2)ccc1F [Example 179, 6-(4-Fluoro-3-methyl-phenyl)-1-[(2-methyl-3-pyridyl)methyl]pyrazolo[4,3-b]pyridine]  507 nM
34. Fc1ccc(-c2cnc3cnn(Cc4cncc(OC(F)F)c4)c3c2)cc1F [Example 194, 1-[[5-(Difluoromethoxy)-3-pyridyl]methyl]-6-(3,4-difluorophenyl)pyrazolo[4,3-b]pyridine]  850 nM
35. FC(F)(F)c1cccc(-c2cnc3cnn(Cc4cnccc4C(F)(F)F)c3c2)c1 [Example 176, 6-[3-(Trifluoromethyl)phenyl]-1-[[4-(trifluoromethyl)-3-pyridyl]methyl]pyrazolo[4,3-b]pyridine]  1300 nM
36. COc1ccc(Cn2ncc3ncc(-c4ccc(F)c(C(F)F)c4)cc32)cn1 [Example 204, 6-[3-(Difluoromethyl)-4-fluoro-phenyl]-1-[(6-methoxy-3-pyridyl)methyl]pyrazolo[4,3-b]pyridine]  1620 nM
37. Fc1ccc(Cn2ncc3ncc(-c4ccc(Cl)c(Cl)c4)cc32)cn1 [Example 214, 6-(3,4-Dichlorophenyl)-1-[(6-fluoro-3-pyridyl)methyl]pyrazolo[4,3-b]pyridine]  1910 nM
38. FC(F)(F)c1cncc(Cn2ncc3ncc(-c4cccc(C(F)(F)F)c4)cc32)c1 [Example 175, 6-[3-(Trifluoromethyl)phenyl]-1-[[5-(trifluoromethyl)-3-pyridyl]methyl]pyrazolo[4,3-b]pyridine]  2300 nM
39. Fc1ccc(-c2cnc3cnn(Cc4ccccn4)c3c2)cc1F [Example 186, 6-(3,4-Difluorophenyl)-1-(2-pyridylmethyl)pyrazolo[4,3-b]pyridine trifluoroacetate salt]  2520 nM
40. Cc1ncccc1Cn1ncc2ncc(-c3ccc(F)c(F)c3)cc21 [Example 188, 6-(3,4-Difluorophenyl)-1-[(2-methyl-3-pyridyl)methyl]pyrazolo[4,3-b]pyridine]  3620 nM
